The values that follow come from EP2351737A1, “3-Amino-1-arylpropyl indoles and aza-substituted indoles” (F. Hoffmann-La Roche AG, priority 2005, dated 2007).

Structures can show the parent of a compound that is named as a salt.

Test [1] addresses T1, Human Serotonin Transporter (hSERT) (Homo sapiens, UniProt P31645).
T1 construct: expressed in transfected cells; membranes prepared from them
Briefly: Human Serotonin Transporter (hSERT) Scintillation Proximity Assay (SPA), competition with [3H]-Citalopram. The conditions noted are these: membranes of HEK-293 cells expressing recombinant hSERT, Ki by Cheng-Prusoff; for Ki: read-out: pKi SERT (converted). Format: binding.
Text: Screening for Human Serotonin Transporter (hSERT) Antagonists Using a Scintillation Proximity Assay (SPA)
Scintillation Proximity Assay (SPA) works by bringing radioligand within close proximity to the bead's scintillant to stimulate light emission. […] Unbound radioligand produced no signal as a result of distant proximity to scintillant (lack of energy transfer).

The target in test [2] is Human Norepinephrine Transporter (hNET) (Homo sapiens, UniProt P23975). Briefly: Human Norepinephrine Transporter (hNET) Scintillation Proximity Assay (SPA), competition with [3H]-Nisoxetine. Conditions: membranes of HEK-293 cells expressing recombinant hNET, Ki by Cheng-Prusoff; for Ki: pKi NET. On the technique in general: In a scintillation proximity assay essentially only radioactivity close to the scintillant gives light.
Human Norepinephrine Transporter (hNET), sequence (P23975 whole entry): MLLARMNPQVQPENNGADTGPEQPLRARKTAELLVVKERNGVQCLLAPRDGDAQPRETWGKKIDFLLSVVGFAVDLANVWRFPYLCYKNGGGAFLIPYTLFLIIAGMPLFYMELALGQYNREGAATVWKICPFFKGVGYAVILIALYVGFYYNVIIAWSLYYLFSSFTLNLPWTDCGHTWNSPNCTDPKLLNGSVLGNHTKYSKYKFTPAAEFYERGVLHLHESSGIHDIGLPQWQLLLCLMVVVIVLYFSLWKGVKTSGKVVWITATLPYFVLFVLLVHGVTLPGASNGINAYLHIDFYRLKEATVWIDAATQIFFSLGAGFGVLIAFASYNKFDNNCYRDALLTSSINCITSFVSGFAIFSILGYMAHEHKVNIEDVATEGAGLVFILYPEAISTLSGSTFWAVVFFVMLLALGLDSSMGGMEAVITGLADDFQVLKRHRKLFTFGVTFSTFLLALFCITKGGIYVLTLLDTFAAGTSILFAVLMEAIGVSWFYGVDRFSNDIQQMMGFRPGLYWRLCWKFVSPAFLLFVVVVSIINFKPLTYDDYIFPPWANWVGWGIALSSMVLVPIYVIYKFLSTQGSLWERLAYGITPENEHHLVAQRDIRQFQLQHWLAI

T1 sequence (P31645 whole entry): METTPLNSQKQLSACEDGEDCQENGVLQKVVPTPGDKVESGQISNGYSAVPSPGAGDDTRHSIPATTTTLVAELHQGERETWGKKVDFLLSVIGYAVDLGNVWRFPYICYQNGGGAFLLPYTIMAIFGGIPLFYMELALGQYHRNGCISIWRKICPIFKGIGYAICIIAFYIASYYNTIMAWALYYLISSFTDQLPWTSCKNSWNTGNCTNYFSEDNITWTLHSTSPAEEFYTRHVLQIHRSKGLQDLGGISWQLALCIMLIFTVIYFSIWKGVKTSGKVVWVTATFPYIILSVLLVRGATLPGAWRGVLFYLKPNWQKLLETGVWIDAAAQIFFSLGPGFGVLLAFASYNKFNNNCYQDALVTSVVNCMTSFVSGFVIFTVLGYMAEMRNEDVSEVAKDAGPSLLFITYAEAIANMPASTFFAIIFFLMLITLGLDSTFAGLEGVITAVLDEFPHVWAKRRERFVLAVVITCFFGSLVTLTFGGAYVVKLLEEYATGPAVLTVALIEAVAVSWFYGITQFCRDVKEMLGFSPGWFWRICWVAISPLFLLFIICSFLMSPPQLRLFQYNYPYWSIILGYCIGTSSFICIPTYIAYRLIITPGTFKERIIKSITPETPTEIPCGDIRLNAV

With “3-[1-(7-Fluoro-1H-indol-5-yl)-3-methylamino-propyl]-benzonitrile [Compound 110]”, the “pKi SERT” value in test [1] is 7.59. The “pKi NET” value in test [2] was 7.95.

In the case of “4-Methoxy-5-(3-methylamino-1-phenyl-propyl)-1H-indole-3-carbonitrile [Compound 89]”, the “pKi SERT” value in test [1] was found to be 9.07. Also, the “pKi NET” value in test [2] worked out at 6.05.

For the molecule “5-(3-Amino-1-phenyl-propyl)-1H-indole-3-carbonitrile [Compound 70]”, in test [1], the “pKi SERT” value was found to be 8.74. The “pKi NET” value in test [2] is 6.39.

Regarding “5-(3-Methylamino-1-phenyl-propyl)-1H-indole-3-carbonitrile [Compound 10]”, the “pKi SERT” value in test [1] was 9.42. In addition, in test [2], the “pKi NET” value is reported as 7.03.

For “5-(3-Methylamino-1-phenyl-propyl)-1H-indole-3-carboxylic acid methylamide [Compound 129]”, the “pKi SERT” value in test [1] came out at 7.18. Further, the “pKi NET” value in test [2] came to 7.72.

Consider “5-[1-(1H-Indol-5-yl)-3-methylamino-propyl]-1H-indole-3-carbonitrile [Compound 122]”, for which the “pKi SERT” value in test [1] came out at 9.24. The “pKi NET” value in test [2] is 7.7.

Consider “7-Chloro-5-(3-methylamino-1-phenyl-propyl)-1H-indole-2-carboxylic acid amide [Compound 105]”, for which, in test [1], the “pKi SERT” value is listed as 7.31. Also, in test [2], the “pKi NET” value came out at 8.35.

On to “7-Fluoro-5-(3-methylamino-1-(S)-phenyl-propyl)-1H-indole-3-carbonitrile [Compound 104]”, for which the “pKi SERT” value in test [1] is 8.1. The “pKi NET” value in test [2] worked out at 7.49.

Turning to `CNCCC(c1ccccc1)c1ccc2[nH]c(C)cc2c1` (centres unmarked) [Compound 7, Methyl-[3-(2-methyl-1H-indol-5-yl)-3-phenyl-propyl]-amine], the Ki in test [1] is 11 nM; in test [2] it was 91.2 nM.

On to `CNCCC(c1ccccc1)c1ccc2ccn(C)c2c1` (centres unmarked) [Compound 9, Methyl-[3-(1-methyl-1H-indol-6-yl)-3-phenyl-propyl]-amine], for which the Ki in test [1] is 9.55 nM; in test [2] it was 74.1 nM.

With `CNCCC(c1ccccc1)c1cc(F)c2[nH]ccc2c1` (centres unmarked) [Compound 13], the “pKi SERT” value in test [1] amounted to 7.4. In addition, the “pKi NET” value in test [2] stood at 8.2.

With `CNCCC(c1ccccc1)c1ccc2[nH]cc(C)c2c1` (centres unmarked) [Compound 15, Methyl-[3-(3-methyl-1H-indol-5-yl)-3-phenyl-propyl]-amine], the Ki was 5.25 nM in test [1] and 40.7 nM in test [2].

With `CNCCC(c1ccccc1)c1ccc2[nH]cc(S(C)(=O)=O)c2c1` (centres unmarked) [Compound 16], the Ki in test [1] was 151 nM; in test [2], 724 nM.

Take `CNCCC(c1ccccc1)c1cc(F)c2[nH]cc(C#N)c2c1` (centres unmarked) [Compound 19]: the Ki is 2.14 nM in test [1] and 56.2 nM in test [2].

With `CNCCC(c1ccccc1)c1ccc2[nH]c(C(N)=O)cc2c1` (centres unmarked) [Compound 24, 5-(3-Methylamino-1-phenyl-propyl)-1H-indole-2-carboxylic acid amide], the Ki was 70.8 nM in test [1] and 2.88 nM in test [2].

In the case of `CNCCC(c1ccccc1)c1ccc2c(C#N)c[nH]c2c1` (centres unmarked) [Compound 28, 6-(3-Methylamino-1-phenyl-propyl)-1H-indole-3-carbonitrile], the “pKi SERT” value in test [1] came to 9.72. The “pKi NET” value in test [2] turned out to be 6.89.

With `CNCCC(c1ccccc1)c1cc(OC)c2cc[nH]c2c1` (centres unmarked) [Compound 30], in test [1], the “pKi SERT” value is listed as 9.06. Also, in test [2], the “pKi NET” value is 7.63.

For the molecule `CNCCC(c1ccccc1)c1ccc2[nH]ccc2c1` (centres unmarked) [Compound 42, [3-(1H-Indol-5-yl)-3-phenyl-propyl]-methyl-amine], in test [1], the Ki is 32.4 nM. For the same molecule, the “pKi NET” value in test [2] came to 8.0.

For `CNCCC(c1ccccc1)c1ccc2[nH]ncc2c1` (centres unmarked) [Compound 51, [3-(1H-Indazol-5-yl)-3-phenyl-propyl]-methyl-amine hydrochloride], the Ki is 15.8 nM in test [1] and 34.7 nM in test [2].

Regarding `CNCCC(c1ccccc1)c1ccc2[nH]nc(C)c2c1` (centres unmarked) [Compound 58, Methyl-[3-(3-methyl-1H-indazol-5-yl)-3-phenyl-propyl]-amine], the Ki was 42.7 nM in test [1] and 191 nM in test [2].

`CNCC[C@@H](c1ccccc1)c1ccc2[nH]nc(Cl)c2c1` [Compound 60, [(S)-3-(3-Chloro-1H-indazol-5-yl)-3-phenyl-propyl]-methyl-amine]: the values for the Ki in test [1] and in test [2] were 8.51 nM and 40.7 nM, respectively.

In the case of `CNCC[C@H](c1ccccc1)c1ccc2[nH]nc(Cl)c2c1` [Compound 61, [(R)-3-(3-Chloro-1H-indazol-5-yl)-3-phenyl-propyl]-methyl-amine trifluoracetate], the Ki is 3.39 nM in test [1] and 123 nM in test [2].

In the case of `CNCCC(c1ccccc1)c1cc(OC)c2[nH]ncc2c1` (centres unmarked) [Compound 75, [3-(7-Methoxy-1H-indazol-5-yl)-3-phenyl-propyl]-methyl-amine], the results for the Ki in test [1] and in test [2] were 5.62 nM and 6.61 nM, respectively.

With `CNCCC(c1ccccc1)c1cc(C)c2[nH]ncc2c1` (centres unmarked) [Compound 76, Methyl-[3-(7-methyl-1H-indazol-5-yl)-3-phenyl-propyl]-amine], the Ki in test [1] was 17.4 nM; in test [2] it was 25.7 nM.

Consider `CNCCC(c1ccccc1)c1cc(Cl)c2[nH]ncc2c1` (centres unmarked) [Compound 77, [3-(7-Chloro-1H-indazol-5-yl)-3-phenyl-propyl]-methyl-amine], for which the results for the Ki in test [1] and in test [2] were 9.12 nM and 5.5 nM, respectively.

For the molecule `CNCC[C@H](c1ccccc1)c1cc(C)c2[nH]ncc2c1` [Compound 78, Methyl-[3-(7-methyl-1H-indazol-5-yl)-3-(R)-phenyl-propyl]-amine], the Ki in test [1] was 10 nM; in test [2], 19.5 nM.

On to `CCOc1n[nH]c2ccc(C(CCNC)c3ccccc3)cc12` (centres unmarked) [Compound 79, [3-(3-Ethoxy-1H-indazol-5-yl)-3-phenyl-propyl]-methyl-amine], for which the values for the Ki in test [1] and in test [2] were 26.9 nM and 132 nM, respectively.

With `CNCCC(c1ccccc1)c1ccc2[nH]nc(OC(C)C)c2c1` (centres unmarked) [Compound 80, [3-(3-Isopropoxy-1H-indazol-5-yl)-3-phenyl-propyl]-methyl-amine], the Ki in test [1] was 33.1 nM; in test [2], 148 nM.

Regarding `CNCCC(c1ccccc1)c1ccc2[nH]nc(OCC3CC3)c2c1` (centres unmarked) [Compound 81, [3-(3-Cyclopropylmethoxy-1H-indazol-5-yl)-3-phenyl-propyl]-methyl-amine], the Ki in test [1] was 56.2 nM; in test [2], 214 nM.

For `CNCC[C@@H](c1ccccc1)c1cc(OC)c2[nH]ncc2c1` [Compound 82, [3-(7-Methoxy-1H-indazol-5-yl)-3-(S)-phenyl-propyl]-methyl-amine], the results for the Ki in test [1] and in test [2] were 3.72 nM and 2.63 nM, respectively.

Take `CNCC[C@H](c1ccccc1)c1cc(OC)c2[nH]ncc2c1` [Compound 83, [3-(7-Methoxy-1H-indazol-5-yl)-3-(R)-phenyl-propyl]-methyl-amine]: the Ki in test [1] was 11.5 nM; in test [2] it was 53.7 nM.

Take `CNCC[C@H](c1ccccc1)c1cc(Cl)c2[nH]ncc2c1` [Compound 84, [3-(7-Chloro-1H-indazol-5-yl)-3-(R)-phenyl-propyl]-methyl-amine]: the Ki was 5.89 nM in test [1] and 7.76 nM in test [2].

As to `CNCCC(c1ccccc1)c1cc(C(F)(F)F)c2[nH]ncc2c1` (centres unmarked) [Compound 85, Methyl-[3-phenyl-3-(7-trifluoromethyl-1H-indazol-5-yl)-propyl]-amine], the Ki in test [1] is 21.4 nM; in test [2], 15.1 nM.

With `CNCCC(c1ccccc1)c1ccc2[nH]cc(S(=O)(=O)N(C)C)c2c1` (centres unmarked) [Compound 90, 5-(3-Methylamino-1-phenyl-propyl)-1H-indole-3-sulfonic acid dimethylamide], the Ki was 38 nM in test [1] and 240 nM in test [2].

On to `CNCCC(c1ccccc1)c1ccc2[nH]cc(C(N)=O)c2c1` (centres unmarked) [Compound 91, 5-(3-Methylamino-1-phenyl-propyl)-1H-indole-3-carboxylic acid amide], for which the Ki in test [1] is 33.9 nM; in test [2], 603 nM.

For `CNCCC(c1ccccc1)c1ccc2[nH]cc(C(=O)N(C)C)c2c1` (centres unmarked) [Compound 92, 5-(3-Methylamino-1-phenyl-propyl)-1H-indole-3-carboxylic acid dimethylamide], the results for the Ki in test [1] and in test [2] were 35.5 nM and 316 nM, respectively.

Turning to `CNCCC(c1ccccc1)c1cc(OC)c2[nH]cc(C#N)c2c1` (centres unmarked) [Compound 96, 7-Methoxy-5-(3-methylamino-1-phenyl-propyl)-1H-indole-3-carbonitrile], the Ki in test [1] is 85.1 nM; in test [2], 97.7 nM.

On to `CNCCC(c1ccccc1)c1ccc2[nH]ccc2c1F` (centres unmarked) [Compound 97, [3-(4-Fluoro-1H-indol-5-yl)-3-phenyl-propyl]-methyl-amine], for which the Ki in test [1] was 9.33 nM; in test [2] it was 17 nM.

Consider `CNCC[C@H](c1ccccc1)c1cc(F)c2[nH]cc(C#N)c2c1` [Compound 99, 7-Fluoro-5-(3-methylamino-1-(R)-phenyl-propyl)-1H-indole-3-carbonitrile], for which the Ki in test [1] is 0.661 nM; in test [2], 145 nM.

As for `CNCCC(c1ccccc1)c1cc2cc[nH]c2cc1F` (centres unmarked) [Compound 102, [3-(6-Fluoro-1H-indol-5-yl)-3-phenyl-propyl]-methyl-amine], the Ki in test [1] was 77.6 nM; in test [2] it was 28.8 nM.

For the molecule `NCCC(c1ccccc1)c1cc(Cl)c2[nH]c(C(N)=O)cc2c1` (centres unmarked) [Compound 103, 5-(3-Amino-1-phenyl-propyl)-7-chloro-1H-indole-2-carboxylic acid amide], the Ki in test [1] was 145 nM; in test [2] it was 4.37 nM.

For the molecule `CNCCC(c1ccc2[nH]ccc2c1)c1nccs1` (centres unmarked) [Compound 139, [3-(1H-Indol-5-yl)-3-thiazol-2-yl-propyl]-methyl-amine], the Ki in test [2] is 74.1 nM.
